Test results taken from patent US5708063A, “Photochromic compound” (Tokuyama Corporation, priority 1993, dated 1998).

Key:
[1] = Photochromic PMMA cast film: initial coloration density, maximum absorption wavelength and fatigue life in xenon fadeometer (Example 9); assay type: physicochemical; conditions: PMMA cast film 0.1 mm; for λmax / Initial color density: xenon light; for Initial color density / T1/2: no stabilizer; for T1/2: time for color density to fall to half of initial value, xenon fadeometer;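 as to Initial color density: initial color density is an absorbance value so the % unit is wrong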
Description: The thickness of the cast film was adjusted to 0.1 mm.
(§1) T1/2 is defined as the time required for the color density to decrease to half of its initial value when the film is exposed to the fadeometer.

[2] = Durability of poly(allyl diglycol carbonate) lens impregnated with the compound in silicone oil, as in Example 9 (Example 10); assay type: physicochemical; parameters: Initial color density: unit not given here; conditions: silicone oil impregnation; for Initial color density: 1.0×10^-4 mole/g; for T1/2: xenon fadeometer
Method: as §1
The solution was impregnated in the surface of a lens composed of poly(allyl diglycol carbonate) at 200° C. for 1 hour. The concentration of the solution was adjusted to 1.0×10^-4 mole/g.

| Compound | λmax [1] | Initial color density [1] | T1/2 [1] | λmax [2] | Initial color density [2] | T1/2 [2] |
| --- | --- | --- | --- | --- | --- | --- |
| O=C1C2=C(C3CC3)c3cc(Br)sc3C3(C4CCCC3CCC4)C2C(=O)N1CCc1ccc2ccccc2c1 (stereo not drawn) [(3), 2-bromo-4-cyclopropyl-6,7-dihydrido-N-(β-naphtylethyl)spirobenzo[5,6-b]thiophenedicarboxyimido-7'9'-bicyclo[3.3.1]nonane] | 545 nm | 0.88% | 45 h | 550 nm | 0.81 | 49 h |
| Cc1cc2c(s1)C1(C3CCC1CC3)C1C(=O)N(C[N+](=O)[O-])C(=O)C1=C2C1CC1 (centres unmarked) [(8)] | 571 nm | 0.69% | 75 h | 578 nm | 0.63 | 80 h |
| CNC(=O)CN1C(=O)C2=C(C3CC3C(F)(F)F)c3cc([N+](=O)[O-])sc3C3(C4CCC3CC4)C2C1=O (centres unmarked) [(11)] | 530 nm | 0.75% | 65 h | – | – | – |
| COC12CCC(CC1)C21c2oc3ccccc3c2C(C2CC2(Br)Br)=C2C(=O)N(CC(=O)OC(C)(C)CCC#N)C(=O)C21 (centres unmarked) [(13)] | 495 nm | 0.69% | 47 h | – | – | – |
| N#CCOCN1C(=O)C2=C(C3CC3c3ccccc3)c3sccc3C3(C2C1=O)C1(Cl)CCC3(Cl)CC1 (centres unmarked) [(14)] | 552 nm | 0.58% | 69 h | – | – | – |
| COCCOCN1C(=O)C2=C(C3(F)C(F)(F)C3(F)F)c3c(oc4ccccc34)C3(C2C1=O)C1(F)CCC3(F)CC1 (centres unmarked) [(16)] | 498 nm | 0.82% | 91 h | – | – | – |
| COc1cc(OC)c2c(c1)C(C1C(C)(C)C1(C)C)=C1C(=O)N(Cc3ccc4ccccc4c3)C(=O)C1C21C2CCC1CC2 (centres unmarked) [(18)] | 603 nm | 0.62% | 61 h | – | – | – |
| COC1CC1C1=C2C(=O)N(Cc3ccc4ccccc4c3)C(=O)C2C2(c3c1sc1ccccc31)C1CCC2CC1 (centres unmarked) [(19)] | 524 nm | 0.58% | 81 h | – | – | – |
| COC(=O)CN1C(=O)C2=C(C3CC3)c3ccoc3C3(C4CCC3CC4)C2C1=O (centres unmarked) [(20)] | 531 nm | 0.82% | 89 h | 535 nm | 0.73 | 95 h |
| N#CCN1C(=O)C2=C(C3CC3Oc3ccccc3)c3ccoc3C3(C4CCC3CC4)C2C1=O (centres unmarked) [(22)] | 554 nm | 0.81% | 88 h | 559 nm | 0.70 | 93 h |
| CC(C)COC(=O)CN1C(=O)C2=C(C3C(CCl)C3CCl)c3cc(Br)sc3C3(C4CCCC3CCC4)C2C1=O (centres unmarked) [(23)] | 539 nm | 0.87% | 53 h | – | – | – |
| CCC(C#N)N1C(=O)C2=C(C3CC3[N+](=O)[O-])c3c(sc4c3CCCC4)C3(C4CCCC3(C)CCC4)C2C1=O (centres unmarked) [(25)] | 562 nm | 0.71% | 76 h | 565 nm | 0.65 | 79 h |
| COC(=O)C(C)N1C(=O)C2=C(C3CC3OC(C)(C)C)c3cc(Cl)oc3C3(C4CCCC3(C)CC(C)(C)C4)C2C1=O (centres unmarked) [(26)] | 546 nm | 0.78% | 72 h | – | – | – |
| CCCCC1CC2CCCC(C1)C21c2sc(C)c(CC)c2C(C2C(I)C2I)=C2C(=O)N(CC3CCCCC3C#N)C(=O)C21 (centres unmarked) [(27)] | 553 nm | 0.68% | 51 h | – | – | – |
| COC12CCCC(CCC1)C21c2c(Cl)csc2C(C2CC2CCc2ccccc2)=C2C(=O)N(CC(=O)NCCBr)C(=O)C21 (centres unmarked) [(28)] | 526 nm | 0.56% | 54 h | – | – | – |
| COc1cc(OC)c2c(c1)C(C1CC1O)=C1C(=O)N(C3CCC([N+](=O)[O-])CC3)C(=O)C1C21C2CCCC1(Cl)CCC2 (centres unmarked) [(29)] | 588 nm | 0.52% | 62 h | – | – | – |
| CCSC1CC1C1=C2C(=O)N(C(CC)COC(=O)OC[N+](=O)[O-])C(=O)C2C2(c3scc([N+](=O)[O-])c31)C1CC3CC2CC(C)(C3)C1 (centres unmarked) [(37)] | 540 nm | 0.77% | 75 h | – | – | – |
| Cn1c2c(c3ccccc31)C1(C3CC4CC(C3)CC1C4)C1C(=O)N(CC(C)(C)CCOC(=O)CBr)C(=O)C1=C2C1CC1CCCc1ccccc1 (centres unmarked) [(38)] | 592 nm | 0.61% | 68 h | – | – | – |
| COc1cc2c(c(OC)c1OC)C1(C3CC4CC1CC(OC)(C4)C3)C1C(=O)N(CC(=O)NCCBr)C(=O)C1=C2C1CC1C(Cl)(Cl)Cl (centres unmarked) [(39)] | 527 nm | 0.58% | 65 h | – | – | – |
| CCOC(=O)C12CC3CC(C1)C1(c4c([N+](=O)[O-])csc4C(C4CC4Br)=C4C(=O)N(CC(F)(F)F)C(=O)C41)C(C(=O)OCC)(C3)C2 (centres unmarked) [(43)] | 509 nm | 0.62% | 72 h | – | – | – |
| CN(C)c1ccc2cc(CCCN3C(=O)C4=C(C5CC5)c5c([N+](=O)[O-])csc5C5(C6CC7CC(C6)CC5C7)C4C3=O)ccc2c1 (centres unmarked) [(47)] | 529 nm | 0.72% | 52 h | – | – | – |
| O=C1OC(=O)C2C1=C(C1CC1)c1c(oc3ccccc13)C21C2CCC1CC2 (centres unmarked) [(52)] | 534 nm | 1.21% | 54 h | – | – | – |
| Cc1cc2c(s1)C1(C3CC4CC(Cl)(C3)CC1(Cl)C4)C1C(=O)OC(=O)C1=C2C1CC1 (centres unmarked) [(58)] | 554 nm | 1.24% | 48 h | – | – | – |
| CCC(C(=O)OCCc1ccc2ccccc2c1)N1C(=O)C2=C(C)c3ccsc3C3(C4CC5CC(C4)CC3C5)C2C1=O (centres unmarked) [(A), reference compound] | 520 nm | 0.51% | 24 h | – | – | – |
| CC1=C2C(=O)N(CCCCC(=O)OCCc3ccc4ccccc4c3)C(=O)C2C2(c3sccc31)C1CC3CC(C1)CC2C3 (centres unmarked) [(B), reference compound] | 538 nm | 0.49% | 16 h | – | – | – |
| CC1=C2C(=O)N(C[N+](=O)[O-])C(=O)C2C2(c3sc(C)cc31)C1CCC2CC1 (centres unmarked) [(C), reference compound] | 556 nm | 0.72% | 80 h | – | – | – |
| CC1=C2C(=O)N(CC#N)C(=O)C2C2(c3occc31)C1CCC2CC1 (centres unmarked) [(D), reference compound] | 535 nm | 0.90% | 48 h | – | – | – |
| CC1=C2C(=O)N(CCCc3ccc4cc(N(C)C)ccc4c3)C(=O)C2C2(c3scc([N+](=O)[O-])c31)C1CC3CC(C1)CC2C3 (centres unmarked) [(E), reference compound] | 535 nm | – | 14 h | – | – | – |
| CC1=C2C(=O)N(CCc3cccc4ccccc34)C(=O)C2C2(c3c1sc1c3CCCC1)C1CCCC2CCC1 (centres unmarked) [(F), reference compound] | 508 nm | 0.47% | 13 h | – | – | – |
| CC1=C2C(=O)OC(=O)C2C2(c3sc4c(c31)CCCC4)C1CCCC2CCC1 (centres unmarked) [(G), reference compound] | 585 nm | 0.71% | 10 h | – | – | – |
